{"source": "PubChem BioAssay AID1963825", "about": "(Molecular Pharmacology Branch, DTP, NCI, 2024)", "test": "Anticancer human tumor 997537-175-T-J1-PDC patient-derived colon adenocarcinoma cell line growth inhibition [POLQ]", "conditions": "997537-175-T-J1-PDC complex spheroid viability, combination with POLQ inhibitors; for pIC50: curve of first compound; for viability, T/C: stronger effect = lower value", "procedure,_shortened": "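Complex spheroid viability model combining PDC tumour cells with endothelial (HUVEC) and MSC stromal cells. Novobiocin, ART-558 or RP6685 were tested singly and in combination with standard and investigational anticancer drugs. Each was titrated in half-log steps from near clinical Cmax, or from 10 microM where Cmax was unknown.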", "key": {"[1]": {"conditions": "second compound 0.0316 µM, first compound 0.00316 µM"}, "[2]": {"conditions": "second compound 0.0316 µM, first compound 0.01 µM"}, "[3]": {"conditions": "second compound 0.0316 µM, first compound 0.0316 µM"}, "[4]": {"conditions": "second compound 0.0316 µM, first compound 0.1 µM"}, "[5]": {"conditions": "second compound 0.1 µM, first compound 0.00316 µM"}, "[6]": {"conditions": "second compound 0.1 µM, first compound 0.01 µM"}, "[7]": {"conditions": "second compound 0.1 µM, first compound 0.0316 µM"}, "[8]": {"conditions": "second compound 0.1 µM, first compound 0.1 µM"}, "[9]": {"conditions": "second compound 0.316 µM, first compound 0.00316 µM"}, "[10]": {"conditions": "second compound 0.316 µM, first compound 0.01 µM"}, "[11]": {"conditions": "second compound 0.316 µM, first compound 0.0316 µM"}, "[12]": {"conditions": "second compound 0.316 µM, first compound 0.1 µM"}, "[13]": {"conditions": "second compound 1 µM, first compound 0.00316 µM"}, "[14]": {"conditions": "second compound 1 µM, first compound 0.01 µM"}, "[15]": {"conditions": "second compound 1 µM, first compound 0.0316 µM"}, "[16]": {"conditions": "second compound 1 µM, first compound 0.1 µM"}, "[17]": {"conditions": "second compound 3.16 µM, first compound 0.00316 µM"}, "[18]": {"conditions": "second compound 3.16 µM, first compound 0.01 µM"}, "[19]": {"conditions": "second compound 3.16 µM, first compound 0.0316 µM"}, "[20]": {"conditions": "second compound 3.16 µM, first compound 0.1 µM"}, "[21]": {"conditions": "second compound 10 µM, first compound 0.00316 µM"}, "[22]": {"conditions": "second compound 10 µM, first compound 0.01 µM"}, "[23]": {"conditions": "second compound 10 µM, first compound 0.0316 µM"}, "[24]": {"conditions": "second compound 10 µM, first compound 0.1 µM"}}, "note": "pIC50: −log10 of the molar value.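 Note: luminescence signal used as a surrogate for viable cells; spheroids exposed to drugs for seven days before readout.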"}
{"smiles": "COc1cccc(OCCCN)c1-c1cc(Nc2cnc(C#N)cn2)n[nH]1", "note": "+ Cc1cccc(N(C)C(=O)C2C(O)CCN2c2nc(C)cc(C(F)(F)F)c2C#N)c1", "values": [{"measurement": "pIC50", "setting": "second compound 0.0316 µM", "result": 6.88}, {"measurement": "pIC50", "setting": "second compound 0.1 µM", "result": 6.86}, {"measurement": "pIC50", "setting": "second compound 0.316 µM", "result": 6.90}, {"measurement": "pIC50", "setting": "second compound 1 µM", "result": 7.41}, {"measurement": "pIC50", "setting": "second compound 3.16 µM", "result": 7.63}, {"measurement": "pIC50", "setting": "second compound 10 µM", "result": 6.87}, {"measurement": "viability, T/C", "setting": "[1]", "result": 92.7, "unit": "%"}, {"measurement": "viability, T/C", "setting": "[2]", "result": 97.7, "unit": "%"}, {"measurement": "viability, T/C", "setting": "[3]", "result": 79, "unit": "%"}, {"measurement": "viability, T/C", "setting": "[4]", "result": 60.8, "unit": "%"}, {"measurement": "viability, T/C", "setting": "second compound 0.0316 µM, first compound 0.316 µM", "result": 22.5, "unit": "%"}, {"measurement": "viability, T/C", "setting": "second compound 0.0316 µM, first compound 1 µM", "result": 27.9, "unit": "%"}, {"measurement": "viability, T/C", "setting": "[5]", "result": 111, "unit": "%"}, {"measurement": "viability, T/C", "setting": "[6]", "result": 107, "unit": "%"}, {"measurement": "viability, T/C", "setting": "[7]", "result": 50.1, "unit": "%"}, {"measurement": "viability, T/C", "setting": "[8]", "result": 73, "unit": "%"}, {"measurement": "viability, T/C", "setting": "second compound 0.1 µM, first compound 0.316 µM", "result": 32.8, "unit": "%"}, {"measurement": "viability, T/C", "setting": "second compound 0.1 µM, first compound 1 µM", "result": 31.2, "unit": "%"}, {"measurement": "viability, T/C", "setting": "[9]", "result": 100, "unit": "%"}, {"measurement": "viability, T/C", "setting": "[10]", "result": 79.8, "unit": "%"}, {"measurement": "viability, T/C", "setting": "[11]", "result": 70.1, "unit": "%"}, {"measurement": "viability, T/C", "setting": "[12]", "result": 45.3, "unit": "%"}, {"measurement": "viability, T/C", "setting": "second compound 0.316 µM, first compound 0.316 µM", "result": 48.2, "unit": "%"}, {"measurement": "viability, T/C", "setting": "second compound 0.316 µM, first compound 1 µM", "result": 20, "unit": "%"}, {"measurement": "viability, T/C", "setting": "[13]", "result": 101, "unit": "%"}, {"measurement": "viability, T/C", "setting": "[14]", "result": 79.1, "unit": "%"}, {"measurement": "viability, T/C", "setting": "[15]", "result": 59.6, "unit": "%"}, {"measurement": "viability, T/C", "setting": "[16]", "result": 25.9, "unit": "%"}, {"measurement": "viability, T/C", "setting": "second compound 1 µM, first compound 0.316 µM", "result": 29.5, "unit": "%"}, {"measurement": "viability, T/C", "setting": "second compound 1 µM, first compound 1 µM", "result": 27.4, "unit": "%"}, {"measurement": "viability, T/C", "setting": "[17]", "result": 86.6, "unit": "%"}, {"measurement": "viability, T/C", "setting": "[18]", "result": 85.4, "unit": "%"}, {"measurement": "viability, T/C", "setting": "[19]", "result": 38, "unit": "%"}, {"measurement": "viability, T/C", "setting": "[20]", "result": 20.6, "unit": "%"}, {"measurement": "viability, T/C", "setting": "second compound 3.16 µM, first compound 0.316 µM", "result": 18.4, "unit": "%"}, {"measurement": "viability, T/C", "setting": "second compound 3.16 µM, first compound 1 µM", "result": 36, "unit": "%"}, {"measurement": "viability, T/C", "setting": "[21]", "result": 86.8, "unit": "%"}, {"measurement": "viability, T/C", "setting": "[22]", "result": 73.6, "unit": "%"}, {"measurement": "viability, T/C", "setting": "[23]", "result": 62.9, "unit": "%"}, {"measurement": "viability, T/C", "setting": "[24]", "result": 45.8, "unit": "%"}, {"measurement": "viability, T/C", "setting": "second compound 10 µM, first compound 0.316 µM", "result": 53.1, "unit": "%"}, {"measurement": "viability, T/C", "setting": "second compound 10 µM, first compound 1 µM", "result": 30.1, "unit": "%"}]}
{"smiles": "Cn1ncnc1[C@H]1c2n[nH]c(=O)c3cc(F)cc(c23)N[C@@H]1c1ccc(F)cc1", "note": "+ Cc1cccc(N(C)C(=O)C2C(O)CCN2c2nc(C)cc(C(F)(F)F)c2C#N)c1", "values": [{"measurement": "pIC50", "setting": "second compound 0.0316 µM", "result": "< 7.00"}, {"measurement": "pIC50", "setting": "second compound 0.1 µM", "result": "< 7.00"}, {"measurement": "pIC50", "setting": "second compound 0.316 µM", "result": "< 7.00"}, {"measurement": "pIC50", "setting": "second compound 1 µM", "result": "< 7.00"}, {"measurement": "pIC50", "setting": "second compound 3.16 µM", "result": "< 7.00"}, {"measurement": "pIC50", "setting": "second compound 10 µM", "result": "< 7.00"}, {"measurement": "viability, T/C", "setting": "second compound 0.0316 µM, first compound 0.000316 µM", "result": 98, "unit": "%"}, {"measurement": "viability, T/C", "setting": "second compound 0.0316 µM, first compound 0.001 µM", "result": 109, "unit": "%"}, {"measurement": "viability, T/C", "setting": "[1]", "result": 93.5, "unit": "%"}, {"measurement": "viability, T/C", "setting": "[2]", "result": 98.6, "unit": "%"}, {"measurement": "viability, T/C", "setting": "[3]", "result": 110, "unit": "%"}, {"measurement": "viability, T/C", "setting": "[4]", "result": 90, "unit": "%"}, {"measurement": "viability, T/C", "setting": "second compound 0.1 µM, first compound 0.000316 µM", "result": 94.8, "unit": "%"}, {"measurement": "viability, T/C", "setting": "second compound 0.1 µM, first compound 0.001 µM", "result": 113, "unit": "%"}, {"measurement": "viability, T/C", "setting": "[5]", "result": 76.2, "unit": "%"}, {"measurement": "viability, T/C", "setting": "[6]", "result": 119, "unit": "%"}, {"measurement": "viability, T/C", "setting": "[7]", "result": 113, "unit": "%"}, {"measurement": "viability, T/C", "setting": "[8]", "result": 97.6, "unit": "%"}, {"measurement": "viability, T/C", "setting": "second compound 0.316 µM, first compound 0.000316 µM", "result": 90.6, "unit": "%"}, {"measurement": "viability, T/C", "setting": "second compound 0.316 µM, first compound 0.001 µM", "result": 102, "unit": "%"}, {"measurement": "viability, T/C", "setting": "[9]", "result": 94.3, "unit": "%"}, {"measurement": "viability, T/C", "setting": "[10]", "result": 94.6, "unit": "%"}, {"measurement": "viability, T/C", "setting": "[11]", "result": 91.1, "unit": "%"}, {"measurement": "viability, T/C", "setting": "[12]", "result": 91.4, "unit": "%"}, {"measurement": "viability, T/C", "setting": "second compound 1 µM, first compound 0.000316 µM", "result": 92.6, "unit": "%"}, {"measurement": "viability, T/C", "setting": "second compound 1 µM, first compound 0.001 µM", "result": 109, "unit": "%"}, {"measurement": "viability, T/C", "setting": "[13]", "result": 96.1, "unit": "%"}, {"measurement": "viability, T/C", "setting": "[14]", "result": 100, "unit": "%"}, {"measurement": "viability, T/C", "setting": "[15]", "result": 98.3, "unit": "%"}, {"measurement": "viability, T/C", "setting": "[16]", "result": 84.4, "unit": "%"}, {"measurement": "viability, T/C", "setting": "second compound 3.16 µM, first compound 0.000316 µM", "result": 105, "unit": "%"}, {"measurement": "viability, T/C", "setting": "second compound 3.16 µM, first compound 0.001 µM", "result": 109, "unit": "%"}, {"measurement": "viability, T/C", "setting": "[17]", "result": 95.6, "unit": "%"}, {"measurement": "viability, T/C", "setting": "[18]", "result": 91.5, "unit": "%"}, {"measurement": "viability, T/C", "setting": "[19]", "result": 92.1, "unit": "%"}, {"measurement": "viability, T/C", "setting": "[20]", "result": 94.7, "unit": "%"}, {"measurement": "viability, T/C", "setting": "second compound 10 µM, first compound 0.000316 µM", "result": 102, "unit": "%"}, {"measurement": "viability, T/C", "setting": "second compound 10 µM, first compound 0.001 µM", "result": 93.1, "unit": "%"}, {"measurement": "viability, T/C", "setting": "[21]", "result": 89.8, "unit": "%"}, {"measurement": "viability, T/C", "setting": "[22]", "result": 84.4, "unit": "%"}, {"measurement": "viability, T/C", "setting": "[23]", "result": 84.4, "unit": "%"}, {"measurement": "viability, T/C", "setting": "[24]", "result": 99.3, "unit": "%"}]}
